This is an account of results in patent publication US9266904B2, “6-bridged heteroaryldihydropyrimidines for the treatment and prophylaxis of hepatitis B virus infection” (priority 2013, dated 2016).

In brackets after ≈: the same amount, converted by molar mass. Where only a bound is given, the exact number is not on record here.

The subject of series [1] is HBV replication in HepG2.2.15 cells. The experiment in a line: Anti-HBV activity in vitro in HepG2.2.15 cells (extracellular HBV DNA by qPCR). Particulars: Hepatitis B virus, HepG2.2.15, Anti-HBV activity in HepG2.2.15 cells; read-out: EC50. It is filed as cell-based. In short, it runs like this: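 Constitutively HBV-producing HepG2.2.15 cells were seeded overnight at 37 °C, then treated with half-log serial dilutions of compound (0.5% DMSO final) for five days. Supernatant HBV DNA was extracted and quantified by qPCR; EC50 is the concentration inhibiting HBV replication by 50%.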

A short description of series [2]: Cytotoxicity (CCK-8 cell viability) and selectivity index. The following applies: human, HepDE19 cells; cytotoxicity, concentration resulting in death of 50% of host cells. The class given is cell-based, human. In short, it runs like this:
(§1)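 HepDE19 cells (5×10^3/well) were treated with compounds as for the EC50 runs and, after 5 days, given CCK-8 for 2 h at 37° C. Absorbance was read at OD450 and OD630, and CC50 was taken as the concentration killing 50% of host cells.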

Another series deals with HepDE19 cells. The description is as above. It is filed as cell-based, human. Particulars: CC50 value/EC50 value. In short, it runs like this:
as §1

A short description of series [3]: Human microsomal clearance assay. The following applies: human, 1 μM, pH 7.4. It is filed as in vitro ADME. In short, it runs like this: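 Liver microsomes (0.5 mg/mL protein) were incubated with 1 μM compound at 37 °C, pH 7.4 phosphate, with an NADPH-regenerating system. Samples at 0-30 min were quenched and measured by LC-MS/MS for parent loss. No-NADPH controls were included.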

Series [4] is described as follows: Lyophilisation solubility assay (Lysa). The class given is physicochemical. Particulars: pH 6.5, aqueous buffer, thermodynamic from solid. In short, it runs like this: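 DMSO was evaporated from 10 mM stocks, and residues were taken up in 0.05 M phosphate buffer pH 6.5, stirred 1 h, shaken 2 h and left overnight. Filtrates were quantified by UV or HPLC-UV against a four-point calibration, in duplicate. Values are in μg/ml, with a lower-bound value when >80% dissolved.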

A further series relates to CYP3A4. Particulars: human, 24 h.
A further series has as its system HBV. The following applies: HBV infected transgenic mouse or humanized mouse models; cited from earlier work.

Description for CYP3A4: Human cryopreserved hepatocytes (Life Technologies, Carlsbad, USA) were thawed and cultured in collagen I coated 96-well plates with a density of 52,000 cells/well. After attachment, medium was changed and cells were pre-cultured overnight in hepatocyte maintenance medium (HMM; Lonza, Switzerland).
Test compounds were dosed to the cells next morning at an indicated concentration (up to 10 μM) in HMM culture media containing gentamycin and a constant 0.1% DMSO. Similarly, dilutions of the positive inducer compounds omeprazole (prototypical inducer of human CYP1A2; final concentrations: 1 and 10 μM), phenobarbital (prototypical inducer of human CYP2B6; final concentrations: 100 and 1000 μM) and rifampicin (prototypical inducer of human CYP3A4; final concentrations: 1 and 10 μM) were prepared from 1000 fold DMSO stock solutions in HMM containing gentamycin. Medium change was then performed and cells were exposed for 24 hours to test compounds, positive inducer compounds, or vehicle (0.1% DMSO), respectively.
At the end of the compound exposure period, medium was removed and cells lysed using 100 μL/well MagNA Pure LC RNA isolation tissue lysis buffer (Roche Diagnostics AG, Rotkreuz, Switzerland). Plates were then sealed and frozen at −80° C. until further workup.
mRNA isolation was performed using the MagNA Pure 96 system (Roche Diagnostics AG, Rotkreuz, Switzerland) and the respective cellular RNA large volume kit (Roche Diagnostics AG, Rotkreuz, Switzerland) from thawed samples diluted 1:1 with PBS. The volume of the cell lysis and an elution volume of 100 μL were used. 20 μL of the resulting mRNA suspension was then used for reverse transcription using 20 μL of the transcript or first stand cDNA synthesis kit (Roche prime Supply, Mannheim, Germany). The resulting cDNA was diluted with 40 μL of H2O before using for qRT-PCR. qRT-PCR was performed by using the forward and the reverse primer, the corresponding UPL (all from Microsynth, Balgach, Switzerland) and the Taqman Fast advanced master mix (Applied Biosystems), on an ABI 7900 machine (Applied Biosystems).
qRT-PCR Ct-values for the respective P450s were put into relation to the Ct-value of RN18S1 (microsynth, Balgach, Switzerland) of the same sample. Doing so, a respective Δct-value was calculated. Using the average of all Δct-values for the vehicle control samples, a ΔΔct-value was calculated for each sample (ΔΔct-value(sample)=Δct-value(sample)−average of Δct-value of all vehicle controls). The fold induction of the respective sample was calculated as 2^(−ΔΔct). The individual fold induction values were then averaged per treatment condition (usually n=3 biological replicates).
Relative induction values to the respective positive inducer compound condition (10 μM omeprazole for CYP1A2; 1000 μM Phenobarbital for CYP2B6; 10 μM rifampicin for CYP3A4) were then calculated from the fold induction values as follows: Relative induction(%)=100×(T−V)/(P−V)
T: fold induction of test compound condition
P: fold induction of positive inducer compound
V: fold induction of vehicle controls

By EC50 is commonly meant the concentration that produces a half-maximal response. Usually CC50 stands for the concentration that lowers cell viability or growth by half. A lower CC50 goes with harm at low concentration. A word on the thermodynamic solubility: it is solubility found after equilibrating the solid with the medium. For the compound `CCOC(=O)C1=C(CN2[C@@H]3COC[C@H]2C[C@H](CC(=O)O)C3)NC(c2nccs2)=N[C@H]1c1ccc(F)c(F)c1Cl` [Example 69, Exo-2-[(1S,5R)-9-[[(4R)-4-(2-chloro-3,4-difluoro-phenyl)-5-ethoxycarbonyl-2-thiazol-2-yl-1,4-dihydropyrimidin-6-yl]methyl]-3-oxa-9-azabicyclo[3.3.1]nonan-7-yl]acetic acid], the EC50 in series [1] worked out at 0.0031 µM. This compound also came in with a CC50 at 5 days in series [2] above 100 µM. Further, in the series on HepDE19 cells, the “Selectivity index (CC50/EC50)” value is reported as above 32258. In addition, the CLh in series [3] is 2.4 mL/min/kg. The same compound registered a thermodynamic solubility in series [4] of 203 µg/mL (≈ 349 µM). The “% of Positive control (10 μM Rifampicin)” value with CYP3A4 was determined as 21%.
As to `COC(=O)C1=C(CN2[C@@H]3C[C@H](CC(=O)O)C[C@H]2C(F)(F)C3)NC(c2nccs2)=N[C@H]1c1cccc(F)c1Cl` [Example 88, 2-[(1R,3S,5S)-8-[[(4R)-4-(2-chloro-3-fluoro-phenyl)-5-methoxycarbonyl-2-thiazol-2-yl-1,4-dihydropyrimidin-6-yl]methyl]-6,6-difluoro-8-azabicyclo[3.2.1]octan-3-yl]acetic acid], the EC50 in series [1] was determined as 0.0013 µM. Moreover, the CC50 at 5 days in series [2] worked out at 52 µM. Further, the “Selectivity index (CC50/EC50)” value with HepDE19 cells was determined as 39662. In series [3], this compound returned a CLh of 0.2 mL/min/kg. In series [4], the solubility (thermodynamic) was found to be 120 µg/mL (≈ 211 µM). Besides, the “% of Positive control (10 μM Rifampicin)” value in the series on CYP3A4 amounted to 39%.
Take `COC(=O)C1=C(C)NC(c2ncc(F)cc2F)=N[C@H]1c1ccc(F)cc1Cl` [Bay 41-4109]: in the series on HBV, the “in vivo efficacy (HBV DNA reduction)” value was “demonstrated in vivo efficacy with HBV DNA reduction”.
In the case of `CCOC(=O)C1=C(CN2C3COCC2CC(CC(=O)O)C3)NC(c2nccs2)=N[C@H]1c1ccc(F)cc1Cl` (stereo partly drawn) [Example 26, (R)-6-(7-Carboxymethyl-3-oxa-9-aza-bicyclo[3.3.1]non-9-ylmethyl)-4-(2-chloro-4-fluoro-phenyl)-2-thiazol-2-yl-1,4-dihydro-pyrimidine-5-carboxylic acid ethyl ester], the EC50 in series [1] stood at 0.013 µM. In series [2], this compound came in with a CC50 at 5 days of 68 µM. Also, the “Selectivity index (CC50/EC50)” value in the series with HepDE19 cells turned out to be 5231. In series [3], the CLh is 3.5 mL/min/kg. In series [4], this compound registered a thermodynamic solubility of 470 µg/mL (≈ 835 µM). In the series on CYP3A4, the “% of Positive control (10 μM Rifampicin)” value was determined as 36%.
Turning to `CCOC(=O)C1=C(CN2[C@@H]3COC[C@H]2C[C@H](CC(=O)O)C3)NC(c2nccs2)=N[C@H]1c1ccc(F)c(F)c1Br` [Example 80, Exo-2-[(1S,5R)-9-[[(4R)-4-(2-bromo-3,4-difluoro-phenyl)-5-ethoxycarbonyl-2-thiazol-2-yl-1,4-dihydropyrimidin-6-yl]methyl]-3-oxa-9-azabicyclo[3.3.1]nonan-7-yl]acetic acid], the EC50 in series [1] came to 0.0017 µM. In series [2], the CC50 at 5 days is 38 µM. Moreover, the “Selectivity index (CC50/EC50)” value with HepDE19 cells was found to be 22394. Besides, in series [3], the CLh was found to be 4.6 mL/min/kg. Also, the solubility (thermodynamic) in series [4] was determined as 221 µg/mL (≈ 353 µM). Moreover, in the series on CYP3A4, the “% of Positive control (10 μM Rifampicin)” value stood at 35%.
`COC(=O)C1=C(CN2[C@@H]3COC[C@H]2C[C@@H](NS(N)(=O)=O)C3)NC(c2nccs2)=N[C@H]1c1ccc(F)cc1Cl` [Example 56, Methyl (4R)-4-(2-chloro-4-fluoro-phenyl)-6-[[(1R,5S)-7-endo-(sulfamoylamino)-3-oxa-9-azabicyclo[3.3.1]nonan-9-yl]methyl]-2-thiazol-2-yl-1,4-dihydropyrimidine-5-carboxylate]: the EC50 in series [1] worked out at 0.0044 µM. Half-maximal cytotoxicity in series [2] (CC50 at 5 days) was put at 43 µM. The “Selectivity index (CC50/EC50)” value in the series on HepDE19 cells is recorded as 9766. Moreover, the CLh in series [3] came out at 6.1 mL/min/kg. Moreover, the “% of Positive control (10 μM Rifampicin)” value with CYP3A4 was 23%.
Taken in the same sequence, the figures for `COC(=O)C1=C(CN2C3COCC2CC(NC(C)=O)C3)NC(c2nccs2)=N[C@H]1c1ccc(F)cc1Cl` (stereo partly drawn) [Example 35, (R)-6-(7-Acetylamino-3-oxa-9-aza-bicyclo[3.3.1]non-9-ylmethyl)-4-(2-chloro-4-fluoro-phenyl)-2-thiazol-2-yl-1,4-dihydro-pyrimidine-5-carboxylic acid methyl ester] were 0.006 µM, 50 µM, 7813, 6.4 mL/min/kg and 20%.
`COC(=O)C1=C(CN2C3COCC2CC(CC(=O)O)C3)NC(c2nccs2)=N[C@H]1c1ccc(F)cc1Cl` (stereo partly drawn) [Example 24, (R)-6-(7-Carboxymethyl-3-oxa-9-aza-bicyclo[3.3.1]non-9-ylmethyl)-4-(2-chloro-4-fluoro-phenyl)-2-thiazol-2-yl-1,4-dihydro-pyrimidine-5-carboxylic acid methyl ester]: in series [1], the EC50 amounted to 0.013 µM. Further, in series [2], the CC50 at 5 days was above 100 µM. Besides, the “Selectivity index (CC50/EC50)” value with HepDE19 cells is above 7692. In addition, in series [3], the CLh worked out at 2.6 mL/min/kg. The thermodynamic solubility in series [4] is above 621 µg/mL. Moreover, in the series with CYP3A4, the “% of Positive control (10 μM Rifampicin)” value came to 29%.
Consider `CCOC(=O)C1=C(CN2[C@@H]3COC[C@H]2C[C@H](CC(=O)O)C3)NC(c2nccs2)=N[C@H]1c1cccc(F)c1Br` [Example 68, Exo-2-[(1S,5R)-9-[[(4R)-4-(2-bromo-3-fluoro-phenyl)-5-ethoxycarbonyl-2-thiazol-2-yl-1,4-dihydropyrimidin-6-yl]methyl]-3-oxa-9-azabicyclo[3.3.1]nonan-7-yl]acetic acid], for which the EC50 in series [1] was found to be 0.0038 µM. In series [3], this compound yielded a CLh of 3.5 mL/min/kg. Moreover, the solubility (thermodynamic) in series [4] was determined as 320 µg/mL (≈ 527 µM). Besides, in the series on CYP3A4, the “% of Positive control (10 μM Rifampicin)” value turned out to be 7.7%.
For the compound `COC(=O)C1=C(CN2C3COCC2C(F)(F)[C@H](CC(=O)O)C3)NC(c2nccs2)=N[C@H]1c1ccc(F)cc1Cl` (stereo partly drawn) [Example 126, 2-[(7S)-9-[[(4R)-4-(2-chloro-4-fluoro-phenyl)-5-methoxycarbonyl-2-thiazol-2-yl-1,4-dihydropyrimidin-6-yl]methyl]-6,6-difluoro-3-oxa-9-azabicyclo[3.3.1]nonan-7-yl]acetic acid], the EC50 in series [1] came to 0.0103 µM. Moreover, the CC50 at 5 days in series [2] is above 100 µM. Moreover, the “Selectivity index (CC50/EC50)” value in the series with HepDE19 cells is above 9709. In series [3], this compound showed a CLh of 0 mL/min/kg. This compound also registered a thermodynamic solubility in series [4] above 605 µg/mL. For the same compound, in the series on CYP3A4, the “% of Positive control (10 μM Rifampicin)” value was 17%.
With `COC(=O)C1=C(CN2C3COCC2CC(CC(=O)O)C3)NC(c2nccs2)=N[C@H]1c1ccc(F)c(F)c1Cl` (stereo partly drawn) [Example 135, Endo-2-[9-[[(4R)-4-(2-chloro-3,4-difluoro-phenyl)-5-methoxycarbonyl-2-thiazol-2-yl-1,4-dihydropyrimidin-6-yl]methyl]-3-oxa-9-azabicyclo[3.3.1]nonan-7-yl]acetic acid], the EC50 in series [1] worked out at 0.0065 µM. The compound further registered a CC50 at 5 days in series [2] above 100 µM. Besides, the “Selectivity index (CC50/EC50)” value in the series with HepDE19 cells is recorded as above 15385. For the same compound, the CLh in series [3] came out at 4.2 mL/min/kg. Besides, the thermodynamic solubility in series [4] stood at 533 µg/mL (≈ 940 µM). Moreover, the “% of Positive control (10 μM Rifampicin)” value with CYP3A4 turned out to be 27%.
As for `COC(=O)C1=C(CN2[C@@H]3COC[C@H]2C[C@H](CC(=O)O)C3)NC(c2nccs2)=N[C@H]1c1ccc(F)c(F)c1Cl` [Example 73, Exo-2-[(1S,5R)-9-[[(4R)-4-(2-chloro-3,4-difluoro-phenyl)-5-methoxycarbonyl-2-thiazol-2-yl-1,4-dihydropyrimidin-6-yl]methyl]-3-oxa-9-azabicyclo[3.3.1]nonan-7-yl]acetic acid], the EC50 in series [1] stood at 0.003 µM. This compound also came in with a CC50 at 5 days in series [2] of 72 µM. Besides, in the series with HepDE19 cells, the “Selectivity index (CC50/EC50)” value turned out to be 24083. Besides, the CLh in series [3] came out at 3.6 mL/min/kg. Moreover, the solubility (thermodynamic) in series [4] was above 654 µg/mL. Also, in the series with CYP3A4, the “% of Positive control (10 μM Rifampicin)” value amounted to 21%.
`CCOC(=O)C1=C(CN2[C@@H]3COC[C@H]2C[C@H](CC(=O)O)C3)NC(c2nccs2)=N[C@H]1c1cccc(F)c1Cl` [Example 66, Exo-2-[(1S,5R)-9-[[(4R)-4-(2-chloro-3-fluoro-phenyl)-5-ethoxycarbonyl-2-thiazol-2-yl-1,4-dihydropyrimidin-6-yl]methyl]-3-oxa-9-azabicyclo[3.3.1]nonan-7-yl]acetic acid]: the EC50 in series [1] was 0.0036 µM. The compound also gave a CLh in series [3] of 3.2 mL/min/kg. This compound had a thermodynamic solubility in series [4] of 390 µg/mL (≈ 693 µM). Besides, the “% of Positive control (10 μM Rifampicin)” value in the series on CYP3A4 is on record as 6.2%.
